Experiment [1] can be described thus: Inhibition of Escherichia coli DNA topoisomerase 4 subunit B using ATP as substrate assessed as release of inorganic phosphate incubated for 10 mins prior to substrate addition measured after 30 mins by spectrophotometric analysis.
A short description of experiment [2]: Inhibition of Enterococcus faecalis DNA topoisomerase 4 subunit B using ATP as substrate assessed as release of inorganic phosphate incubated for 10 mins prior to substrate addition measured after 30 mins by spectrophotometric analysis.
Experiment [3] can be described thus: Inhibition of Francisella tularensis DNA topoisomerase 4 subunit B using ATP as substrate assessed as release of inorganic phosphate incubated for 10 mins prior to substrate addition measured after 30 mins by spectrophotometric analysis.
The nature of experiment [4]: Inhibition of Enterococcus faecalis DNA gyrase subunit B using ATP as substrate assessed as release of inorganic phosphate incubated for 10 mins prior to substrate addition measured after 30 mins by spectrophotometric analysis.
Experiment [5] can be described thus: Inhibition of Francisella tularensis DNA gyrase subunit B using ATP as substrate assessed as release of inorganic phosphate incubated for 10 mins prior to substrate addition measured after 30 mins by spectrophotometric analysis.
In another experiment the test system is Staphylococcus aureus. The experiment in a line: Antibacterial activity against Staphylococcus aureus assessed as growth inhibition. Type of experiment: functional.
Experiment [6] can be described thus: Inhibition of Acinetobacter baumannii DNA topoisomerase 4 subunit B using ATP as substrate assessed as release of inorganic phosphate incubated for 10 mins prior to substrate addition measured after 30 mins by spectrophotometric analysis.

The text below walks through data of ChEMBL document CHEMBL2331411, “Pyrrolopyrimidine inhibitors of DNA gyrase B (GyrB) and topoisomerase IV (ParE). Part I: Structure guided discovery and optimization of dual targeting agents with potent, broad-spectrum enzymatic activity” (Bioorg Med Chem Lett, 2013).

Molecules are shown by their SMILES. Converted amounts (≈) assume the structure as drawn.

As to `CCc1[nH]c2nc(Oc3cncnc3)nc(N3CC[C@@H](N)C3)c2c1Cl`, the Ki is 38 nM in experiment [1]; 84 nM in experiment [2]; 15 nM in experiment [3]; less than 1 nM in experiment [4]; 3 nM in experiment [5].
With `CCc1cc2c(Cl)nc(Sc3cccnc3)nc2[nH]1`, the MIC in the experiment on Staphylococcus aureus is more than 64 µg/mL. Moreover, the inhibition constant (Ki) in experiment [4] is more than 50000 nM.
`CCc1[nH]c2nc(Sc3cccnc3)nc(OC)c2c1C=O`: the Ki in experiment [2] came to 1200 nM; in experiment [3] it was 900 nM; in experiment [4] it was 200 nM; in experiment [5], 800 nM.
As to `CCc1[nH]c2nc(Sc3cnc4nccnc4c3)nc(N3CCC(N)CC3)c2c1Cl`, the Ki in experiment [1] is 36 nM; in experiment [2], 69 nM; in experiment [3], 6 nM; in experiment [4], less than 1 nM; in experiment [5] it was 3 nM.
With `CCc1[nH]c2nc(Sc3cnc4nccnc4c3)nc(N3C[C@H]4CN[C@H]4C3)c2c1Cl`, the Ki in experiment [1] is 2 nM; in experiment [2], 9 nM; in experiment [3], 1 nM; in experiment [4] it was less than 1 nM.
Consider `CCc1[nH]c2nc(Sc3cncnc3)nc(N3CC4C(N)C4C3)c2c1Cl` (configuration not stated), for which the Ki in experiment [1] turned out to be 36 nM; in experiment [2], 79 nM; in experiment [3], 15 nM; in experiment [4], 5 nM; in experiment [5], 2 nM.
The like results for `CCc1[nH]c2nc(Sc3cnc4nccnc4c3)nc(N3C[C@H]4CCCN[C@H]4C3)c2c1Cl` were, in that order, 17 nM, 29 nM, 10 nM, 9 nM and less than 1 nM.
Take `CCc1[nH]c2nc(Sc3cnc4cccnc4c3)nc(N3CC[C@@H](N)C3)c2c1Cl`: the results for the Ki in experiment [1], in experiment [2] and in experiment [4] were less than 1 nM, 2 nM and less than 1 nM, respectively.
Take `CCc1[nH]c2nc(Sc3cnc4nccnc4c3)nc(N3CC[C@@H](N)C3)c2c1Cl`: the Ki in experiment [1] was 11 nM; in experiment [2], 23 nM; in experiment [3], 4 nM; in experiment [4], 2 nM; in experiment [5], less than 1 nM.
The like results for `CCc1[nH]c2nc(Sc3cnc4ncc(=O)[nH]c4c3)nc(N3CC[C@@H](N)C3)c2c1Cl` were, in that order, 11 nM, 13 nM, 6 nM, less than 1 nM and 1 nM.
As for `CCc1[nH]c2nc(Sc3cccnc3)nc(Cl)c2c1Br`, the MIC in the experiment on Staphylococcus aureus stood at 2 µg/mL (≈ 5.41 µM). The Ki in experiment [2] came out at 3500 nM; in experiment [3], 1200 nM; in experiment [4], 300 nM; in experiment [5], 400 nM.
Take `CCc1[nH]c2nc(Sc3cnc4ccc[n+]([O-])c4c3)nc(N3CC[C@@H](N)C3)c2c1Cl`: the Ki in experiment [1] was 5 nM; in experiment [2], 5 nM; in experiment [3], 1 nM; in experiment [4], less than 1 nM.
Take `CCc1[nH]c2nc(Sc3ccc4c(c3)C(=O)NC4)nc(N3CC[C@@H](N)C3)c2c1Cl`: the Ki was 11 nM in experiment [1]; 19 nM in experiment [2]; 2 nM in experiment [3]; 7 nM in experiment [4]; 9 nM in experiment [5].
As to `CCc1[nH]c2nc(Sc3ccc4cc5c(nc4c3)C(=O)OC5)nc(N3CC[C@@H](N)C3)c2c1Cl`, the Ki in experiment [1] is less than 1 nM; in experiment [2] it was less than 1 nM; in experiment [3], 2 nM; in experiment [4], less than 1 nM.
With `CCc1[nH]c2nc(Sc3cnc4nccnc4c3)nc(N3CC(N)C3)c2c1Cl`, the inhibition constant (Ki) in experiment [1] is 39 nM; in experiment [2], 65 nM; in experiment [3], 4 nM; in experiment [4], 4 nM; in experiment [5], 7 nM.
Consider `CCc1[nH]c2nc(Sc3ccc4cncnc4c3)nc(N3CC[C@@H](N)C3)c2c1Cl`, for which the Ki in experiment [1] is 5 nM; in experiment [2] it was 7 nM; in experiment [3], 2 nM; in experiment [4] it was less than 1 nM.
As to `CCc1[nH]c2nc(Sc3cnc4cccnc4c3)nc(N3CC4C(N)C4C3)c2c1Cl` (configuration not stated), the Ki in experiment [1] is 1 nM; in experiment [2], 10 nM; in experiment [3] it was 2 nM; in experiment [4], 1 nM; in experiment [5] it was less than 1 nM.
For the compound `CCc1[nH]c2nc(Sc3ccc4nc[nH]c(=O)c4c3)nc(N3CC[C@@H](N)C3)c2c1Cl`, the Ki is 4 nM in experiment [1], 14 nM in experiment [2], 2 nM in experiment [3] and less than 1 nM in experiment [4].
Turning to `CCc1[nH]c2nc(Oc3cnc4cccnc4c3)nc(N3CC4C(N)C4C3)c2c1Cl` (configuration not stated), the Ki is less than 1 nM in experiment [1], 3 nM in experiment [2] and less than 1 nM in experiment [4].
As to `CCc1[nH]c2nc(Sc3cccnc3)nc(Cl)c2c1C(F)F`, the MIC in the experiment on Staphylococcus aureus was 64 µg/mL (≈ 188 µM). In addition, the Ki came out at 1200 nM in experiment [2], 400 nM in experiment [3], 1700 nM in experiment [4] and 500 nM in experiment [5].
Take `CCc1[nH]c2nc(Sc3ccc4nc(N)n[n+]([O-])c4c3)nc(N3CC[C@@H](N)C3)c2c1Cl`: the figures for the Ki in experiment [1], in experiment [2] and in experiment [4] were 2 nM, 7 nM and less than 1 nM, respectively.
Regarding `CCc1[nH]c2nc(Sc3ccc4c(N5CCC(N)C5)cc(C(=O)O)nc4c3)nc(N3CC[C@@H](N)C3)c2c1Cl` (some centres not stated), the Ki in experiment [1] is 7 nM; in experiment [2], 19 nM; in experiment [3], 6 nM; in experiment [4], less than 1 nM.
For the compound `CCc1[nH]c2nc(Sc3ccc4cccnc4c3)nc(N3CC[C@@H](N)C3)c2c1Cl`, the Ki came out at 80 nM in experiment [1]; 148 nM in experiment [2]; 27 nM in experiment [3]; 4 nM in experiment [4]; 10 nM in experiment [5].
Turning to `CCc1[nH]c2nc(Oc3cncnc3)nc(N3CC4C(N)C4C3)c2c1Cl` (configuration not stated), the Ki in experiment [1] was 4 nM; in experiment [2] it was 10 nM; in experiment [3], 2 nM; in experiment [4] it was less than 1 nM.
For `CCc1[nH]c2nc(Sc3cnc4[nH][nH]c(=O)c4c3)nc(N3CC[C@@H](N)C3)c2c1Cl`, the Ki in experiment [1] was 6 nM; in experiment [2], 24 nM; in experiment [3], 4 nM; in experiment [4] it was 6 nM; in experiment [5], 5 nM.
In the case of `CCc1[nH]c2nc(Sc3cncnc3)nc(N3CC[C@@H](N)C3)c2c1Cl`, the Ki was 127 nM in experiment [1]; 157 nM in experiment [2]; 36 nM in experiment [3]; 4 nM in experiment [4]; 8 nM in experiment [5].
Take `CCc1[nH]c2nc(Sc3cccnc3)nc(Cl)c2c1Cl`: in the experiment with Staphylococcus aureus, the MIC stood at 4 µg/mL (≈ 12.3 µM). The Ki in experiment [2] was 3500 nM; in experiment [6], 2000 nM; in experiment [4], 400 nM; in experiment [5] it was 500 nM.
Consider `CCc1[nH]c2nc(Sc3ccc4ccc[n+]([O-])c4c3)nc(N3CC[C@@H](N)C3)c2c1Cl`, for which the inhibitory constant (Ki) was 7 nM in experiment [1], 15 nM in experiment [2], 3 nM in experiment [3] and less than 1 nM in experiment [4].
Take `CCc1[nH]c2nc(Sc3ccc4[nH]cc(C(=O)O)c(=O)c4c3)nc(N3CC[C@@H](N)C3)c2c1Cl`: the results for the Ki in experiment [1], in experiment [2] and in experiment [4] were less than 1 nM, 6 nM and less than 1 nM, respectively.
With `CCc1[nH]c2nc(Sc3cccnc3)nc(Cl)c2c1C(C)=O`, the MIC in the experiment on Staphylococcus aureus stood at 64 µg/mL (≈ 192 µM). The Ki in experiment [2] is 1000 nM; in experiment [3], more than 20000 nM; in experiment [4], 2000 nM; in experiment [5], 6600 nM.
As for `CCc1[nH]c2nc(Sc3ccc4ccc(C(=O)O)nc4c3)nc(N3CC[C@@H](N)C3)c2c1Cl`, the Ki in experiment [1] was 2 nM; in experiment [2], 4 nM; in experiment [3], 4 nM; in experiment [4], less than 1 nM.
On to `CCc1[nH]c2nc(Sc3cnc4nccnc4c3)nc(N3CC4C(N)C4C3)c2c1Cl` (configuration not stated), for which the Ki in experiment [1] is less than 1 nM; in experiment [2], 4 nM; in experiment [4], less than 1 nM.
`CCc1[nH]c2nc(Sc3cnc4nccnc4c3)nc(N3C[C@H]4CCN[C@H]4C3)c2c1Cl`: the Ki was 6 nM in experiment [1]; 19 nM in experiment [2]; 9 nM in experiment [3]; 6 nM in experiment [4]; less than 1 nM in experiment [5].
Turning to `CCc1[nH]c2nc(Sc3cccnc3)nc(Cl)c2c1C=O`, in the experiment with Staphylococcus aureus, the MIC amounted to 64 µg/mL (≈ 201 µM). Besides, the Ki in experiment [2] is 3700 nM; in experiment [3] it was 8700 nM; in experiment [4], 800 nM; in experiment [5], 1200 nM.
